Experimental data as given in patent publication US4386103A, “Dichloroamino acid derivatives useful as potent germicidal and fungicidal agents” (Merck & Co., Inc., priority 1981, dated 1983).

Columns and labels:
[1] = system: Trychophyton mentagrophytes; test: Contact fungicidal screen, Trychophyton mentagrophytes; format: cell-based; settings: 0.1M NaOAc pH 4.6
germs = test: Germicidal activity, lowest active concentration; format: cell-based; settings: read-out: concentration at which germicidal activity is shown
Candida albican = test: Contact fungicidal screen, Candida albican; format: cell-based; settings: 0.1M NaOAc pH 4.6
Experimental: The organisms used in the Contact Fungicidal Screen are a dermatophyte, trychophyton mentagrophytes, frequently associated with athlete's foot; a yeast, Candida albican, causative agent of thrush and vaginitis; a phycomycete, Rhizopus oryzae, commonly known as black bread mold; an ascomycete, Aspergillus fumagatis, found in chicken droppings and causing lung infections; and another dermatophyte, Microsporum canis, which causes ringworm. These organisms are maintained as stock cultures at 4° C. on agar slants of the following composition: dextrose 2%, Neopeptone (Difco) 1%, agar 2%. Fluid medium of the same nutrient composition (without agar) was used to test the viability of the organisms after exposure to the fungicide. This medium is also known as Sabouraud's medium.
The Candida albican is grown in Sabouraud's liquid medium at 25°-30° C. for three days. At the end of the incubation period the cell suspension is centrifuged at 200 G and washed with sterile physiological saline (0.85% NaCl). The density of the cell suspension is determined by counting in a hemacytometer. The suspension is stored a 4° C. until it is used, at which time it is diluted with sterile physiological saline to a density of 5×10^6 cells per ml.
The compounds are weighed into heat sterilized 100 ml volumetric flasks and immediately before screening dissolved in 0.1 M NaOAc pH 4.6 buffer (test solutions).
The Aspergillus, Candida, Microsporum and Rhizopus species are screened in a slightly different manner. Basically, the procedure for the Contact Germicidal Efficiency Screen is utilized. After the test solutions are made up, 5 ml aliquots are pipetted into heat sterilized 25 ml glass stoppered erlenmeyer flasks. The screen is initiated when 0.5 ml of the 5×10^6 cell (spore) per ml suspension is added to the flask containing 5 ml of the test solution. At intervals of 0.5, 2.5, 5.0, 10.0 and 15.0 minutes, a 4 mm loopful of the inoculated test solution is subcultured into 7 mL of sterile fluid Sabouraud's medium and mixed on a vortex, the high dilution serving to stop the action of the compound. The subculture tubes are incubated at 25°-30° C. for ten days with daily observation for mycelial growth. The earliest subculture time at which no growth is present is considered the endpoint and is recorded as the sterilization time.
To insure the viability of the culture, a 0.5 ml aliquot of the 5×10^6 cells (spores) per ml suspension is transferred to 5 ml of the pH 4.6 buffer. A loopful of the inoculated buffer is then subcultured to 7 ml of fluid Sabouraud's medium and incubated at 25°-30° C. for ten days. To insure that the dilution of the test solution into the subculture medium does stop the action, a loopful of the test solution and a loopful of the inoculated buffer are transferred into the same subculture tube. This tube is also incubated at 25°-30° C. for ten days.

Bacillus subtilis = test: Contact germicidal screen, Bacillus subtilis ATCC No. 60511; format: cell-based
Experimental: The organisms used in the contact germicidal screen are all maintained as stock cultures on nutrient agar […] 4° C. They are transferred and biochemically diagnosed monthly. The five organisms used are: The media used are: […] Overnight cultures of the test organisms are grown in tryptose phosphate broth. After 15-16 hours, the cultures are centrifuged at […] for 15 minutes, and the supernatant replaced with fresh warm (37° C.) media. After two hours of incubation, the absorbance of the culture at 650 nm is determined and diluted with nutrient broth to 1×10^7 colony forming units per ml (using a previous determined standard curve: colony forming units/ml vs. absorbance at 650). The diluted cultures are maintained at 4°-8° C. throughout the screen. The compounds are weighed into sterile 100 ml volumetric flasks, and immediately before screening dissolved in one of the following buffers: 0.1 M NaOAc pH 4.6 or 0.1 M NaH2 PO4 pH 7.0. If solubility poses a problem, 10-30% methanol is used to effect solution. Two denaturing agents are also tested: […] Horse Serum restored with 100 ml distilled water and 10% Trition×100. When used, 2.5 ml of the denaturing agent is mixed with 2.5 ml of double strength test solution thirty minutes before the bacterial suspension is added. The screen is initiated when 0.2 ml of the bacterial suspension is added to 5.0 ml of the test solution contained in a sterile 25 ml glass stoppered flask. At intervals of 0.5, 2.5, 5.0, 10.0 and 15.0 minutes, a loopful of the inoculated test solution is subcultured into 5 ml of sterile nutrient broth and mixed with a vortex, the high dilution serving to stop the action of the compound. All of the subculture tubes are incubated at 37° C. and checked for signs of growth by turbidity at 1, 3, 5 and 7 days. The earliest subculture time at which no growth is present is considered the endpoint and is recorded as the sterilization time. An aliquot of 0.2 ml of the diluted culture is transferred to 5 ml of buffer to simulate 0.2 ml in 5 ml of test solution. (a) Purity: A loopful of the inoculated buffer is streaked onto nutrient agar to check colony morphology and lack of contaminants. (b) Viability: A loopful of the inoculated buffer is subcultured to 5 ml of nutrient broth as in the screen and incubated at 37° C. for 24 hours. (c) Dilution of the Test Solution: A loopful of the test solution is transferred to a 5 ml tube of nutrient broth, and a loopful of the inoculated buffer is transferred to the same tube of broth. […] (d) Purity of Organisms in the Test Solution: After the 15 minute subculture, a loopful of the inoculated test solution is streaked onto nutrient agar to insure that contamination has not occurred during the screen. (e) lack of Bactericidal Activity of Buffers and Other Solvents: Before a buffer or other solvent is used as a diluent, it is screened against the five organisms to insure that the buffer or solvent has no antibacterial activity itself.

[2] = Stability in Triacetin (preliminary formulation studies); format: physicochemical; settings: 60° C., two months
Source text: Triacetin is the triacetate of glycerin; it is a viscous liquid with high water solubility and very low toxicity. […] Of course other aprotic polar solvents can be used as well.

[3] = 10.0+ PPM, 0.1M NaOAc pH 4.6, screened simultaneously with four other compounds
[4] = 300 PPM with 50% Horse Serum, 0.1M NaOAc pH 4.6
[5] = 300 PPM with 50% Triton X100, 0.1M NaOAc pH 4.6
[6] = 1000 PPM with 50% Horse Serum, 0.1M NaOAc pH 4.6

SMILES: CC(C)(CC(=O)O)N(Cl)Cl [(II)]
- Sterilization Time ([1]; 10 PPM): 5.0 min
- Sterilization Time ([1]; 100 PPM): 0.5 min
- Sterilization Time ([1]; 1000 PPM): 0.5 min
- minimal effective concentration (germs): ≤ 5 µg/mL
- Sterilization Time (Candida albican; 10 PPM): 15 min
- Sterilization Time (Candida albican; 100 PPM): 15 min
- Sterilization Time (Candida albican; 1000 PPM): 2.5 min
- Sterilization Time (Bacillus subtilis; 1.8 PPM, 0.1M NaOAc pH 4.6): 5.0 min
- Sterilization Time (Bacillus subtilis; 4.5 PPM, 0.1M NaOAc pH 4.6): 2.5 min
- Sterilization Time (Bacillus subtilis; [3]): 2.5 min
- Sterilization Time (summary) (Bacillus subtilis; 10 PPM, 0.1M NaOAc pH 4.6): 2.5 min
- Sterilization Time (Bacillus subtilis; 10.0 PPM, 0.1M NaOAc pH 4.6): 2.5 min
- Sterilization Time (Bacillus subtilis; 12.2 PPM, 0.1M NaOAc pH 4.6): 2.5 min
- Sterilization Time (Bacillus subtilis; 32.1 PPM, 0.1M NaOAc pH 4.6): 0.5 min
- Sterilization Time (Bacillus subtilis; 51.0 PPM, Triton X100 (10% solution):pH 4.6 buffer 1:1): 0.5 min
- Sterilization Time (Bacillus subtilis; 51.0 PPM, horse serum:pH 4.6 buffer 1:1): 15 min
- Sterilization Time (Bacillus subtilis; 71.7 PPM, 0.1M NaOAc pH 4.6): 0.5 min
- Sterilization Time (summary) (Bacillus subtilis; 100 PPM, 0.1M NaOAc pH 4.6): 0.5 min
- Sterilization Time (Bacillus subtilis; 104.7 PPM, 0.1M NaOAc pH 4.6): 0.5 min
- Sterilization Time (Bacillus subtilis; 107.8 PPM, 0.1M NaH2PO4 pH 7.0): 5.0 min
- Sterilization Time (Bacillus subtilis; 298.9 PPM, 0.1M NaOAc pH 4.6): 0.5 min
- Sterilization Time (summary) (Bacillus subtilis; [4]): 2.5 min
- Sterilization Time (summary) (Bacillus subtilis; [5]): 0.5 min
- Sterilization Time (Bacillus subtilis; 300 PPM, pH 4.6 buffer with 10% serum): 0.5 min
- Sterilization Time (Bacillus subtilis; 300 PPM, pH 4.6 buffer with 20% serum): 0.5 min
- Sterilization Time (Bacillus subtilis; 300 PPM, pH 4.6 buffer with 35% serum): 2.5 min
- Sterilization Time (Bacillus subtilis; 304.6 PPM, horse serum:pH 4.6 buffer 1:1): 2.5 min
- Sterilization Time (Bacillus subtilis; 304.8 PPM, Triton X100 (10% solution):pH 4.6 buffer 1:1): 0.5 min
- Sterilization Time (Bacillus subtilis; 316.6 PPM, 0.1M NaH2PO4 pH 7.0): 2.5 min
- Sterilization Time (Bacillus subtilis; 606.9 PPM, pH 4.6 buffer with 33% serum): 0.5 min
- Sterilization Time (Bacillus subtilis; 899.25 PPM, pH 4.6 buffer with 25% serum): 0.5 min
- Sterilization Time (summary) (Bacillus subtilis; [6]): 0.5 min
- Sterilization Time (summary) (Bacillus subtilis; 1000 PPM, 0.1M NaOAc pH 4.6): 0.5 min
- Sterilization Time (Bacillus subtilis; 1001.2 PPM, horse serum:pH 4.6 buffer 1:1): 0.5 min
- Sterilization Time (Bacillus subtilis; 1014.8 PPM, 0.1M NaOAc pH 4.6): 0.5 min
- Sterilization Time (Bacillus subtilis; 1016.0 PPM, 0.1M NaH2PO4 pH 7.0): 0.5 min

SMILES: CC(C)(COC(=O)CCC(=O)O)N(Cl)Cl [(IV), 2-Dichloroamino-2-methylpropylhemisuccinate]
- Sterilization Time ([1]; 10 PPM): 5.0 min
- Sterilization Time ([1]; 100 PPM): 2.5 min
- Sterilization Time ([1]; 1000 PPM): 0.5 min
- decomposition in esters of polyalcohols such as Triacetin [2]: no decomposition
- Sterilization Time (Candida albican; 10 PPM): 15 min
- Sterilization Time (Candida albican; 100 PPM): 15 min
- Sterilization Time (Candida albican; 1000 PPM): 2.5 min
- Sterilization Time (Bacillus subtilis; 8.6 PPM, 0.1M NaOAc pH 4.6): 5.0 min
- Sterilization Time (Bacillus subtilis; 9.8 PPM, 0.1M NaH2PO4 pH 7.0): 15 min
- Sterilization Time (Bacillus subtilis; [3]): 2.5 min
- Sterilization Time (summary) (Bacillus subtilis; 10 PPM, 0.1M NaOAc pH 4.6): 2.5 min
- Sterilization Time (summary) (Bacillus subtilis; 100 PPM, 0.1M NaOAc pH 4.6): 2.5 min
- Sterilization Time (Bacillus subtilis; 106.2 PPM, 0.1M NaOAc pH 4.6): 2.5 min
- Sterilization Time (Bacillus subtilis; 149.7 PPM, 0.1M NaH2PO4 pH 7.0): 10.0 min
- Sterilization Time (summary) (Bacillus subtilis; [4]): 5.0 min
- Sterilization Time (summary) (Bacillus subtilis; [5]): 0.5 min
- Sterilization Time (Bacillus subtilis; 308.0 PPM, Triton X100 (10% solution):pH 4.6 buffer 1:1): 0.5 min
- Sterilization Time (Bacillus subtilis; 338.7 PPM, horse serum:pH 4.6 buffer 1:1): 5.0 min
- Sterilization Time (summary) (Bacillus subtilis; [6]): 0.5 min
- Sterilization Time (summary) (Bacillus subtilis; 1000 PPM, 0.1M NaOAc pH 4.6): 0.5 min
- Sterilization Time (Bacillus subtilis; 1008.0 PPM, 0.1M NaOAc pH 4.6): 0.5 min
- Sterilization Time (Bacillus subtilis; 1024.0 PPM, horse serum:pH 4.6 buffer 1:1): 0.5 min
- Sterilization Time (Bacillus subtilis; 1070.3 PPM, 0.1M NaH2PO4 pH 7.0): 2.5 min
